From ChEMBL document CHEMBL1145900, “Histone deacetylase inhibitors” (J Med Chem, 2003)
In brackets after ≈: the same amount, converted by molar mass.

Target: Histone deacetylase
Experiment: Inhibitory concentration against isolated Histone deacetylase
Format: protein assay, Homo sapiens
Conditions: not given

SMILES | IC50 [µM]
Cn1cc(C(=O)Cc2ccccc2)cc1C=C1C(=O)NC(=S)NC1=O | 85
Cn1cc(C(=O)c2ccccc2)cc1/C=C/C(=N)N | 23
O=C(O)C(=O)NCCSSCCNC(=O)/C(Cc1ccc(O)c(Br)c1)=N/O | 0.002
COC(=O)NCCSSCCNC(=O)/C(Cc1ccc(O)c(Br)c1)=N/O [PSAMMAPLIN D] | 0.044
Cn1cc(C(=O)c2ccccc2)cc1/C=C/C#N | 70
O=C(NCCSSCCNC(=O)/C(Cc1ccc(O)c(Br)c1)=N/O)/C(Cc1ccc(O)c(Br)c1)=N/O [PSAMMAPLIN A] | 0.004
CCOC(=O)NCCSSCCNC(=O)/C(Cc1ccc(O)c(Br)c1)=N/O | 0.079
Cn1cc(C(=O)Cc2ccccc2)cc1C=C1C(=O)NC(=O)NC1=O | 104
NC(=O)C(=O)NCCSSCCNC(=O)/C(Cc1ccc(O)c(Br)c1)=N/O [PSAMMAPLIN E] | 0.33

Test system: Plasmodium falciparum
Experiment: Inhibitory concentration against Plasmodium falciparum […]
Format: functional, organism-based
Conditions: not given

SMILES | IC50 [µg/mL]
CC[C@H](C)[C@@H]1NC(=O)[C@H](Cc2cn(OC)c3ccccc23)NC(=O)[C@H](CCCCCC(=O)NO)NC(=O)[C@H]2CCCCN2C1=O | 0.00024 (≈ 0.000383 µM)
CC[C@H](C)[C@@H]1NC(=O)[C@H](Cc2cn(OC)c3ccccc23)NC(=O)[C@H](CCCCCC(=O)C2CO2)NC(=O)[C@H]2CCCCN2C1=O (stereo partly specified) | < 0.015
CCC(=O)C(F)CCCC[C@@H]1NC(=O)[C@H]2CCCCN2C(=O)[C@H]([C@@H](C)CC)NC(=O)[C@H](Cc2cn(OC)c3ccccc23)NC1=O (stereo partly specified) | 0.7 (≈ 1.09 µM)
CC[C@H](C)[C@@H]1NC(=O)[C@H](Cc2cn(OC)c3ccccc23)NC(=O)[C@H](CCCCCCC(=O)OC)NC(=O)[C@H]2CCCCN2C1=O | 0.5 (≈ 0.782 µM)
CC[C@H](C)[C@@H]1NC(=O)[C@H](Cc2cn(OC)c3ccccc23)NC(=O)[C@H](CCCCCC(=O)C(C)F)NC(=O)[C@H]2CCCCN2C1=O (stereo partly specified) | 0.028 (≈ 0.0436 µM)
CC[C@H](C)[C@@H]1NC(=O)[C@H](Cc2cn(OC)c3ccccc23)NC(=O)[C@H](CCCCCC(=O)C(C)O)NC(=O)[C@H]2CCCCN2C1=O (stereo partly specified) | 0.022 (≈ 0.0344 µM)
CC[C@H](C)[C@@H]1NC(=O)[C@H](Cc2cn(OC)c3ccccc23)NC(=O)[C@H](CCCCCC(=O)OC)NC(=O)[C@H]2CCCCN2C1=O | 0.21 (≈ 0.336 µM)
CC[C@H](C)[C@@H]1NC(=O)[C@H](Cc2cn(OC)c3ccccc23)NC(=O)[C@H](CCCCCC(=O)O)NC(=O)[C@H]2CCCCN2C1=O | > 1
CC[C@H](C)[C@@H]1NC(=O)[C@H](Cc2cn(OC)c3ccccc23)NC(=O)[C@H](CCCCC(=O)OC)NC(=O)[C@H]2CCCCN2C1=O | > 1

Test system: MDA-MB-435
Experiment: cells
Format: functional, cell-based
Conditions: Homo sapiens
Description: Inhibitory concentration against MDA-435 cells proliferation

SMILES | IC50 [µM]
O=C(CCCCCNC(=O)[C@H](Cc1ccccc1)N1C(=O)CCC1=O)NO | 10
O=C(CCCCCCNC(=O)C1Cc2ccccc2O1)NO (stereo unspecified) | 0.49
CCC[C@H]1C(=O)N([C@@H](Cc2ccc(OC)cc2)C(=O)NCCCCCC(=O)NO)C(=O)[C@@H]1CC(C)C | 0.18
CC(C)C[C@H]1C(=O)N2C(=O)[C@@H]1CCCCOc1ccc(cc1)C[C@H]2C(=O)NCCCCCC(=O)NO | 0.15
O=C(CCCCCCNC(=O)c1cc2ccccc2[nH]1)NO | 0.15
CCC[C@H]1C(=O)N([C@@H](Cc2ccccc2)C(=O)NCCCCCC(=O)NO)C(=O)[C@@H]1CC(C)C | 0.57
CC(C)C[C@@H]1CC(=O)N([C@@H](Cc2ccccc2)C(=O)NCCCCCC(=O)NO)C1=O | 0.67

Target: Histone deacetylase (Homo sapiens) (UniProt Q13547+O15379+Q9UBN7+Q92769+Q9UQL6+Q8WUI4+Q9BY41+Q96DB2+P56524+Q9UKV0+Q969S8)
Experiment: Percent inhibition against isolated Histone deacetylase at 30 uM
Format: protein assay
Conditions: not given

SMILES | inhibition [%]
Cn1cc(C(=O)c2ccccc2)cc1C=C1C(=O)NC(=S)NC1=O | 0
Cn1cc(C(=O)c2ccccc2)cc1C=C1C(=O)NC(=O)NC1=O | 0

Target: Histone deacetylase
Experiment: not given
Set-up: species or system Rattus norvegicus
Conditions: not given

SMILES | IC50 [µM]
O=C(CCCCCNC(=O)c1ccc(-c2ccccc2)cc1)NO | 0.265
O=C(CCCCCCC(=O)c1ccccc1)NO | 0.27
CN(C)c1ccc(C(=O)NCCCCC(=O)NO)cc1 | > 10
O=C(CCCCCNC(=O)c1ccc(Cl)cc1)NO | 0.369
CN(C)c1ccc(C(=O)NCCCCCCCC(=O)NO)cc1 | 0.145
O=C(CCCCCNC(=O)c1ccc([N+](=O)[O-])cc1)NO | 1.566
CC(C)C[C@H]1C(=O)N2C(=O)[C@@H]1CCCCOc1ccc(cc1)C[C@H]2C(=O)NCCCCCC(=O)NO | 0.038
CN(C)c1ccc(C(=O)NCCCCCC(=O)NO)cc1 | 0.244
O=C(CCCCCN1C(=O)c2ccccc2C1=O)NO | 0.515
CC(C)C[C@H]1C(=O)N[C@H](C(=O)NCCCCCC(=O)NO)Cc2ccc(cc2)OCCCC[C@H]1C(=O)OC(C)(C)C | 2.1
CN(C)c1ccc(C(=O)NCCCCCCC(=O)NO)cc1 | 0.046

Target: Histone deacetylase
Experiment: Inhibitory concentration against human Histone deacetylase in Hela cells
Format: cell-based
Conditions: not given

SMILES | IC50 [µM]
CC[C@H](C)[C@@H]1NC(=O)[C@H](Cc2cn(OC)c3ccccc23)NC(=O)[C@H](CCCCCC(=O)NO)NC(=O)[C@H]2CCCCN2C1=O | 0.0002
CC[C@H](C)[C@@H]1NC(=O)[C@H](Cc2cn(OC)c3ccccc23)NC(=O)[C@H](CCCCCC(=O)C2CO2)NC(=O)[C@H]2CCCCN2C1=O (stereo partly specified) | < 0.0001
CCC(=O)C(F)CCCC[C@@H]1NC(=O)[C@H]2CCCCN2C(=O)[C@H]([C@@H](C)CC)NC(=O)[C@H](Cc2cn(OC)c3ccccc23)NC1=O (stereo partly specified) | 0.11
CC[C@H](C)[C@@H]1NC(=O)[C@H](Cc2cn(OC)c3ccccc23)NC(=O)[C@H](CCCCCCC(=O)OC)NC(=O)[C@H]2CCCCN2C1=O | 0.007
CC[C@H](C)[C@@H]1NC(=O)[C@H](Cc2cn(OC)c3ccccc23)NC(=O)[C@H](CCCCCC(=O)C(C)F)NC(=O)[C@H]2CCCCN2C1=O (stereo partly specified) | 0.001
CC[C@H](C)[C@@H]1NC(=O)[C@H](Cc2cn(OC)c3ccccc23)NC(=O)[C@H](CCCCCC(=O)C(C)O)NC(=O)[C@H]2CCCCN2C1=O (stereo partly specified) | 0.0003
CC[C@H](C)[C@@H]1NC(=O)[C@H](Cc2cn(OC)c3ccccc23)NC(=O)[C@H](CCCCCC(=O)OC)NC(=O)[C@H]2CCCCN2C1=O | 0.0004
CC[C@H](C)[C@@H]1NC(=O)[C@H](Cc2cn(OC)c3ccccc23)NC(=O)[C@H](CCCCCC(=O)O)NC(=O)[C@H]2CCCCN2C1=O | 0.015
CC[C@H](C)[C@@H]1NC(=O)[C@H](Cc2cn(OC)c3ccccc23)NC(=O)[C@H](CCCCC(=O)OC)NC(=O)[C@H]2CCCCN2C1=O | 0.074

Target: Histone deacetylase
Experiment: not given
Format: protein assay, Homo sapiens
Conditions: not given
Remark: another data set of the same source

SMILES | IC50 [µM]
C[C@H](/C=C/C=C/C(=O)NO)NC(=O)c1ccc(N(C)C)cc1 | 12.187
O=C(CCCCCCN1c2cccc3cccc(c23)S1(=O)=O)NO | 0.01
C[C@H](CCCCC(=O)NO)NC(=O)c1ccc(N(C)C)cc1 | 0.359

Target: Histone deacetylase
Experiment: not given
Format: protein assay, Homo sapiens
Conditions: not given
Remark: another data set of the same source

SMILES | IC50 [µM]
O=C(CCCCCCNC(=O)c1ccccn1)NO | 1.68
COc1ccc2[nH]c(C(=O)NCCCCCCC(=O)NO)cc2c1 | 0.0065
O=C(CCCCCCNC(=O)c1ccc2[nH]ccc2c1)NO | 0.0314
O=C(CCCCCCNC(=O)c1ccccc1)NO | 1.006
O=C(CCCCCCNC(=O)C1Cc2ccccc2O1)NO (stereo unspecified) | 0.0296
O=C(CCCCCCNC(=O)c1c[nH]c2ccccc12)NO | 0.0375
O=C(CCCCCCC(=O)C(F)(F)F)Nc1cccc(-c2ccccc2)c1 | 0.38
O=C(CCCCCCNC(=O)c1cccc2[nH]ccc12)NO | 0.0803
COc1ccc2oc(C(=O)NCCCCCCC(=O)NO)cc2c1 | 0.015
COc1cc(OC)c2cc(C(=O)NCCCCCCC(=O)NO)[nH]c2c1 | 0.0031
O=C(CCCCCCNC(=O)c1cccc2cc[nH]c12)NO | 0.041
CC1c2ccccc2CC1C(=O)NCCCCCCC(=O)NO (stereo unspecified) | 0.732
O=C(CCCCCCNC(=O)c1ccc[nH]1)NO | 0.524
O=C(CCCCCCNC(=O)c1cc2cc(F)ccc2[nH]1)NO | 0.0054
O=C(CCCCCCNC(=O)c1cc2cc(Cl)ccc2o1)NO | 0.015
O=C(CCCCCCNC(=O)c1cc2ccccc2[nH]1)NO | 0.0146
COc1cccc2[nH]c(C(=O)NCCCCCCC(=O)NO)cc12 | 0.0031
O=C(/C=C/CCCCOc1ccc(-c2ccccc2)cc1)C(F)(F)F | 5
O=C(CCCCCCNC(=O)c1cc2cc(Br)ccc2[nH]1)NO | 0.0035
O=C(CCCCCCNC(=O)c1ccc2cc[nH]c2c1)NO | 0.0565

Test system: HT-1080
Experiment: cells
Format: functional, cell-based
Conditions: Homo sapiens
Description: Inhibitory concentration against HT1080 cells proliferation

SMILES | IC50 [µM]
O=C(CCCCCCNC(=O)C1Cc2ccccc2O1)NO (stereo unspecified) | 0.76
CC(C)C[C@H]1C(=O)N2C(=O)[C@@H]1CCCCOc1ccc(cc1)C[C@H]2C(=O)NCCCCCC(=O)NO | 0.25
O=C(CCCCCCNC(=O)c1cc2ccccc2[nH]1)NO | 0.14

Target: Histone deacetylase
Experiment: not given
Format: protein assay, Homo sapiens
Conditions: not given
Remark: another data set of the same source

SMILES | IC50 [µM]
Cn1cc(C(=O)c2ccc(Cl)cc2)cc1/C=C/C(=O)NO | 2.4
Cc1ccc(C(=O)c2cc(/C=C/C(=O)NO)n(C)c2)cc1 | 1.9
COc1ccc(C(=O)c2cc(/C=C/C(=O)NO)n(C)c2)cc1 | 2.9
O=C(NO)c1ccc(CNC(=O)c2cccc3ccccc23)cc1 | 0.83
O=C(/C=C/c1cc(C(=O)c2ccccc2)c[nH]1)NO | 5
O=C(NCC1CCC(C(=O)NO)CC1)c1ccc(-c2ccccc2)cc1 (stereo unspecified) | 0.31
Cn1cc(C(=O)c2ccccc2)cc1/C=C/C(=O)NO | 3.8
O=C(NO)c1ccc(CNC(=O)c2ccc3ccccc3c2)cc1 | 0.044
Cn1cc(C(=O)c2ccc([N+](=O)[O-])cc2)cc1/C=C/C(=O)NO | 3.9
CN(C)c1ccc(C(=O)c2cc(/C=C/C(=O)NO)n(C)c2)cc1 | 2.4
O=C(/C=C/c1cc(C(=O)c2ccccc2)cn1-c1ccccc1)NO | 110
Cn1cc(C(=O)c2ccc(F)cc2)cc1/C=C/C(=O)NO | 3.8
CC(C)n1cc(C(=O)c2ccccc2)cc1/C=C/C(=O)NO | 53
Cn1cc(C(=O)/C=C/c2ccccc2)cc1/C=C/C(=O)NO | 1
O=C(NO)c1ccc(CNC(=O)c2ccc(-c3ccccc3)cc2)cc1 | 0.24
Cn1cc(C(=O)c2ccccc2)cc1CCC(=O)NO | 36.8

Test system: not listed separately
Experiment: Inhibition of acetylation of histone-4 in human T-24 cancer cells
Conditions: not given

SMILES | EC [µM]
Nc1ccccc1NC(=O)/C=C/c1ccc(NS(=O)(=O)c2ccc(-c3ccccc3)cc2)cc1 | 15
Nc1ccccc1NC(=O)/C=C/c1ccc(S(=O)(=O)Nc2ccc(-c3ccccc3)cc2)cc1 | 5
